Source: PubChem BioAssay (NCI)
“And” between values parts separate entries of the source, which are not always exact repeats. Identical values can stand only once.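 48-hour exposure; five concentrations; linearly interpolated endpoints. The concentration for 50% growth inhibition is given as GI50. TGI: total growth inhibition.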

What was measured:
Assay in all cases: NCI tumour cell line growth inhibition, 48 h
KM20L2 colon = system: KM20L2 colon
SN12K1 renal = system: SN12K1 renal
DU-145 prostate = system: DU-145 prostate
ACHN renal = system: ACHN renal
MALME-3M melanoma = system: MALME-3M melanoma
P388 leukemia = system: P388 leukemia
A498 renal = system: A498 renal
LXFL 529 NSCLC = system: LXFL 529 NSCLC
SW-620 colon = system: SW-620 colon
DMS 114 small cell lung = system: DMS 114 small cell lung
SF-539 CNS = system: SF-539 CNS
P388/ADR leukemia = system: P388/ADR leukemia
OVCAR-5 ovarian = system: OVCAR-5 ovarian
MDA-N = system: MDA-N
HCT-116 colon = system: HCT-116 colon
HT29 colon = system: HT29 colon
NCI-H226 lung = system: NCI-H226 lung
NCI-H522 lung = system: NCI-H522 lung

| SMILES | GI50 (DU-145 prostate) | TGI (DU-145 prostate) | GI50 (ACHN renal) | GI50 (MALME-3M melanoma) | TGI (MALME-3M melanoma) | GI50 (A498 renal) | TGI (LXFL 529 NSCLC) | GI50 (SF-539 CNS) | TGI (SF-539 CNS) | GI50 (OVCAR-5 ovarian) | TGI (MDA-N) | GI50 (HCT-116 colon) | TGI (HCT-116 colon) | TGI (HT29 colon) | GI50 (NCI-H226 lung) | TGI (NCI-H226 lung) | GI50 (NCI-H522 lung) | TGI (NCI-H522 lung) | also measured |
| --- | --- | --- | --- | --- | --- | --- | --- | --- | --- | --- | --- | --- | --- | --- | --- | --- | --- | --- | --- |
| COc1cccc2c1C(CO)N1C(C#N)C3CC(C(=O)O)C(C1C2)N3C (centres undefined) | 0.365 µM | > 100 µM | 0.294 µM | 0.458 µM | 4.6 µM and 1.23 µM | 0.304 µM | 6.67 µM | 0.195 µM | 3.11 µM and 1.02 µM | 0.183 µM | 0.635 µM and 2.25 µM | 0.337 µM | 5.59 µM | 6.55 µM | 2.47 µM and 0.327 µM | 5.38 µM and 1.23 µM | 0.238 µM | 0.874 µM and 0.389 µM | GI50 (KM20L2 colon): 0.207 µM; TGI (SN12K1 renal): > 100 µM; TGI (P388 leukemia): 6.42 µM; GI50 (SW-620 colon): 0.467 µM; GI50 (DMS 114 small cell lung): 0.159 µM; TGI (P388/ADR leukemia): 1.09 µM |
| CCCCCCCCCCCCCCCCCCOP(=O)([O-])OC1CC[N+](C)(C)CC1 | > 10 µM | > 10 µM and 38.5 µM | 6.37 µM | > 10 µM | > 10 µM and 26.8 µM | 2 µM | 16.5 µM | > 10 µM | > 10 µM and 29.7 µM | 2.25 µM | 26.5 µM | 5.24 µM | > 10 µM and 20.6 µM | > 10 µM and 14.4 µM | > 10 µM | > 10 µM and 27.1 µM | 1.89 µM | 5.64 µM and 12.2 µM | TGI (KM20L2 colon): 6.16 µM; TGI (ACHN renal): > 10 µM and 25.8 µM; TGI (A498 renal): 7.6 µM and 14.8 µM; TGI (SW-620 colon): > 10 µM and 22.4 µM; TGI (DMS 114 small cell lung): 26.5 µM; TGI (OVCAR-5 ovarian): > 10 µM and 8.82 µM; GI50 (HT29 colon): 3.04 µM |
